{"source": "paper PMC3835060", "about": "(2013)", "key": {"[1]": {"test_system": "HTS (human telomere sequence) d[AG3(TTAG3)3] (DNA, G4) AGGGTTAGGGTTAGGGTTAGGG", "experiment": "NMR titration (chemical shifts, intermolecular NOEs)", "conditions": "50 mM NaCl; pH 7, 283 K; binds at both loop ends"}, "[2]": {"test_system": "HTS (human telomere sequence) d[AG3(TTAG3)3] (DNA, G4) AGGGTTAGGGTTAGGGTTAGGG", "experiment": "luminescence titration", "conditions": "200 mM KCl, 10 mM potassium phosphate, 1 mM K2EDTA, pH 7.0, 298 K, error ±20%"}, "[3]": {"test_system": "HTS (human telomere sequence) d[AG3(TTAG3)3] (DNA, G4) AGGGTTAGGGTTAGGGTTAGGG", "experiment": "NMR titration (chemical shifts, line broadening)", "conditions": "50 mM NaCl, pH 7, 298 K"}, "[4]": {"conditions": "7 μM complex, one-set-of-sites fit"}}, "data": [{"smiles": "[Ru+2].[Ru+2].c1ccc(-c2ccccn2)nc1.c1ccc(-c2ccccn2)nc1.c1ccc(-c2ccccn2)nc1.c1ccc(-c2ccccn2)nc1.c1cnc2c(c1)c1nc3c4cccnc4c4ncccc4c3nc1c1cccnc12", "values": [{"measurement": "binding", "setting": "[1]", "result": "yes"}]}, {"smiles": "[Ru+2].[Ru+2].c1cnc2c(c1)c1nc3c4cccnc4c4ncccc4c3nc1c1cccnc12.c1cnc2c(c1)ccc1cccnc12.c1cnc2c(c1)ccc1cccnc12.c1cnc2c(c1)ccc1cccnc12.c1cnc2c(c1)ccc1cccnc12", "values": [{"measurement": "Kb", "setting": "[2]; apparent, diastereomeric mixture", "result": "1.77 × 10^7 M^–1"}]}, {"smiles": "[Ru+2].[Ru+2].c1cnc2c(c1)c1nc3c4cccnc4c4ncccc4c3nc1c1cccnc12.c1cnc2c(c1)ccc1cccnc12.c1cnc2c(c1)ccc1cccnc12.c1cnc2c(c1)ccc1cccnc12.c1cnc2c(c1)ccc1cccnc12", "note": "[ΔΔ-2]", "values": [{"measurement": "Kb", "setting": "[2]; [4]", "result": "2.95 × 10^5 M^–1"}, {"measurement": "binding", "setting": "[3]; binds mainly at lateral loop end", "result": "yes"}]}, {"smiles": "[Ru+2].[Ru+2].c1cnc2c(c1)c1nc3c4cccnc4c4ncccc4c3nc1c1cccnc12.c1cnc2c(c1)ccc1cccnc12.c1cnc2c(c1)ccc1cccnc12.c1cnc2c(c1)ccc1cccnc12.c1cnc2c(c1)ccc1cccnc12", "note": "[ΛΛ-2]", "values": [{"measurement": "Kb", "setting": "[2]; [4]", "result": "1.16 × 10^7 M^–1"}, {"measurement": "binding", "setting": "[3]; binds at both ends", "result": "yes"}]}]}
